12 compounds from ChEMBL document CHEMBL1944623, “Synthesis, characterization and antiamoebic activity of some hydrazone and azole derivatives bearing pyridyl moiety as a promising heterocyclic scaffold” (Eur J Med Chem, 2012) can be followed below.

Structures are written as SMILES.

The subject of one assay is Entamoeba histolytica. The assay can be described thus: Antiameobic activity against Entamoeba histolytica HM-1:IMSS after 72 hrs using trypan blue staining method. Format: functional, organism-based.
The next assay has as its system MCF7. Kind of assay: Cytotoxicity against human MCF7 cells assessed as cell viability after 48 hrs by MTT assay. Format: cell-based. The following applies: MCF7, 48 h. A general note: Tetrazolium dyes change colour on reduction, which living cells bring about.

In the assay with Entamoeba histolytica, `O=C(N/N=C/c1cccc(Cl)c1)c1ccncc1` [N'-(3-CHLOROBENZYLIDENE)ISONICOTINOHYDRAZIDE] registered a half-inhibitory concentration (IC50) of 12.1 µM.
`O=C(N/N=C/c1ccccc1O)c1ccncc1` [SALINAZID]: the IC50 in the assay with Entamoeba histolytica worked out at 4.14 µM.
Turning to `O=C(N/N=C/c1ccc([N+](=O)[O-])cc1)c1ccncc1` [N'-(4-NITROBENZYLIDENE)ISONICOTINOHYDRAZIDE], in the assay with Entamoeba histolytica, the Activity entry is “Dose-dependent effect” and half-maximal inhibition (IC50) required 0.37 µM. For the same compound, the IC50 in the assay with MCF7 is > 250 µM.
On to `S=c1[nH]nc(-c2ccncc2)o1`, for which the Activity result in the assay on Entamoeba histolytica is “Dose-dependent effect”. The IC50 with Entamoeba histolytica was 0.558 µM; in the assay on MCF7, > 250 µM.
On to `O=C(N/N=C/c1ccccc1)c1ccncc1` [N'-BENZYLIDENE ISONICOTINOHYDRAZIDE], for which half-maximal inhibition in the assay on Entamoeba histolytica (IC50) was put at 3.84 µM.
The compound `CC(C)c1ccc(/C=N/NC(=O)c2ccncc2)cc1` registered an IC50 in the assay on Entamoeba histolytica of 3.74 µM.
As to `COc1ccc(/C=N/NC(=O)c2ccncc2)cc1`, in the assay on Entamoeba histolytica, the Activity entry was “Dose-dependent effect” and it took 0.39 µM to reach half-maximal inhibition (IC50). Besides, the IC50 in the assay on MCF7 is > 250 µM.
The corresponding values for `Cc1ccc(/C=N/NC(=O)c2ccncc2)cc1` [N'-(4-METHYLBENZYLIDENE)ISONICOTINOHYDRAZIDE] are “Dose-dependent effect”, 0.13 µM and > 250 µM.
For `Sc1nnc(-c2ccncc2)n1-c1ccccc1` the same measures were “Dose-dependent effect”, 0.16 µM and > 250 µM.
In turn, `c1ccc(Nc2nnc(-c3ccncc3)s2)cc1` showed an IC50 in the assay on Entamoeba histolytica of 4.43 µM.
The compound `CN(C)c1ccc(/C=N/NC(=O)c2ccncc2)cc1` [N'-(4-DIMETHYLAMINOBENZYLIDENE)ISONICOTINOHYDRAZIDE] showed an IC50 in the assay on Entamoeba histolytica of 5.55 µM.
On to `Cc1ncc([N+](=O)[O-])n1CCO` [METRONIDAZOLE], for which the IC50 in the assay with MCF7 was > 250 µM.

As a reminder, the IC50 is the point on the concentration scale where inhibition reaches its midpoint.
